Results on 21 compounds are retold here after US20080114007A1 (priority 2006, published 2008).

For the test, the target named is CSF-1R (Homo sapiens, UniProt P07333). As to the kind of experiment: Peptide (non-phosphorylated) assay, fluorescence polarization competition immunoassay. The class given is biochemical. As to conditions: 0.7 nM CSF-1R, 308 μM SYEGNSYTFIDPTQ peptide, 1 mM ATP, 80 min; mean of at least three determinations; read-out: c-fms Peptide IC50. The essentials:
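Read-out is fluorescence polarization: after EDTA quench, anti-phosphotyrosine antibody plus PTK green tracer compete with the phosphorylated peptide for 30 min. The CSF-1R reaction itself ran 80 min at room temperature after ATP addition. DMSO (4%) wells served as controls, positive controls pre-treated with EDTA.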
(In general: Polarisation of emitted light reports the rotation of a fluorescent probe.)

Chain of CSF-1R (P07333 20-972): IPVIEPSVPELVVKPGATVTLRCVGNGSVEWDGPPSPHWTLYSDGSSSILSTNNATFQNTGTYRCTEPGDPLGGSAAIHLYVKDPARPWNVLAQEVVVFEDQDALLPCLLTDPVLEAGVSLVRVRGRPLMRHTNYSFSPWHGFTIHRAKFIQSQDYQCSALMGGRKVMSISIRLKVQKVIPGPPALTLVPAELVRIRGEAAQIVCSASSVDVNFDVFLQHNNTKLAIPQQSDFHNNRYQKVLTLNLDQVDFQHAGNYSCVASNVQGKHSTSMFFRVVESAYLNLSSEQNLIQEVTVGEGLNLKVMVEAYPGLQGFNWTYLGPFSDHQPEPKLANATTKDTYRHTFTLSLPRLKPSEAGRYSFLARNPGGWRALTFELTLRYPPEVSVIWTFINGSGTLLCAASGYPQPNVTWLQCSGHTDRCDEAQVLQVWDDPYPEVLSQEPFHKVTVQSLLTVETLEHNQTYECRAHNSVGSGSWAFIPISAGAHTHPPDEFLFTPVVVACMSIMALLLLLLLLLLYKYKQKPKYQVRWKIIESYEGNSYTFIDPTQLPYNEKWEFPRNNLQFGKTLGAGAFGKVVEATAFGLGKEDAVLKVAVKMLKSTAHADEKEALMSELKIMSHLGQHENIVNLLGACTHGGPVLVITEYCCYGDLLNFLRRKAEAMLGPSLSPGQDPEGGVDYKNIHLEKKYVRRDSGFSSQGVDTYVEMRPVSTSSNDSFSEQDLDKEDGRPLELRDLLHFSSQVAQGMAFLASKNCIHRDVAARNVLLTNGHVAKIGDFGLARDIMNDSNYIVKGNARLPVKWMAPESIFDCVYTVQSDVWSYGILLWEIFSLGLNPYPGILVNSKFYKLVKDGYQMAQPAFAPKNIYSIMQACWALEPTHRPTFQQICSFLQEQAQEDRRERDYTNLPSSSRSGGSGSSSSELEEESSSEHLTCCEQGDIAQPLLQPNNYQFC

Take `CCc1ccc(-n2cc(C(=O)NOC)c(=O)c3cnc(Nc4ccc(CC(=O)NN5CCCCC5)cc4)nc32)cc1` [Cpd 104, 8-(4-ethyl-phenyl)-5-oxo-2-[4-(piperidin-1-ylcarbamoylmethyl)-phenylamino]-5,8-dihydro-pyrido[2,3-d]pyrimidine-6-carboxylic acid methoxy-amide]: the IC50 was found to be 3 nM.
Under `CCc1ccc(-n2cc(C(=O)NOC)c(=O)c3cnc(Nc4ccc(CC(=O)NN(C)C)cc4)nc32)cc1` [Cpd 105, 2-[4-(N′,N′-dimethyl-hydrazinocarbonylmethyl)-phenylamino]-8-(4-ethyl-phenyl)-5-oxo-5,8-dihydro-pyrido[2,3-d]pyrimidine-6-carboxylic acid methoxy-amide] stands 1.4 nM; under `CCc1ccc(-n2cc(C(=O)NOC)c(=O)c3cnc(Nc4ccc(CC(=O)NNC)cc4)nc32)cc1` [Cpd 106, 8-(4-ethyl-phenyl)-2-[4-(N′-methyl-hydrazinocarbonylmethyl)-phenylamino]-5-oxo-5,8-dihydro-pyrido[2,3-d]pyrimidine-6-carboxylic acid methoxy-amide], 1.6 nM.
The result for `CONC(=O)c1cn(-c2ccc3c(c2)CCC3)c2nc(Nc3ccc(CCNC4C5CC6CC(C5)CC4C6)cc3)ncc2c1=O` (stereo not drawn) [Cpd 107, 2-{4-[2-(adamantan-2-ylamino)-ethyl]-phenylamino}-8-indan-5-yl-5-oxo-5,8-dihydro-pyrido[2,3-d]pyrimidine-6-carboxylic acid methoxy-amide] reads 1.5 nM; that for `CONC(=O)c1cn(-c2ccc3c(c2)CCC3)c2nc(Nc3ccc(CCNC4CC5CCC4C5)cc3)ncc2c1=O` (stereo not drawn) [Cpd 108, 2-{4-[2-(bicyclo[2.2.1]hept-2-ylamino)-ethyl]-phenylamino}-8-indan-5-yl-5-oxo-5,8-dihydro-pyrido[2,3-d]pyrimidine-6-carboxylic acid methoxy-amide], 0.88 nM; that for `CONC(=O)c1cn(-c2ccc3c(c2)CCC3)c2nc(Nc3ccc(CCN4CCC[C@@H]4C(=O)O)cc3)ncc2c1=O` [Cpd 109, (R)-1-{2-[4-(8-indan-5-yl-6-methoxycarbamoyl-5-oxo-5,8-dihydro-pyrido[2,3-d]pyrimidin-2-ylamino)-phenyl]-ethyl}-pyrrolidine-2-carboxylic acid], 1.1 nM.
Under `CONC(=O)c1cn(-c2ccc3c(c2)CCC3)c2nc(Nc3ccc(CCN4C5CCC4CC5)cc3)ncc2c1=O` [Cpd 110, 2-{4-[2-(7-aza-bicyclo[2.2.1]hept-7-yl)-ethyl]-phenylamino}-8-indan-5-yl-5-oxo-5,8-dihydro-pyrido[2,3-d]pyrimidine-6-carboxylic acid methoxy-amide] stands 0.46 nM; under `CONC(=O)c1cn(-c2ccc3c(c2)CCC3)c2nc(Nc3ccc(C4CCN(C(C)C)CC4)cc3)ncc2c1=O` [Cpd 111, 8-indan-5-yl-2-[4-(1-isopropyl-piperidin-4-yl)-phenylamino]-5-oxo-5,8-dihydro-pyrido[2,3-d]pyrimidine-6-carboxylic acid methoxy-amide], 0.58 nM.
With `CN1CCN(c2ccc(Nc3ncc4c(=O)c(C(N)=O)cn(Cc5ccccc5)c4n3)cc2)CC1` [Cpd 114, 8-benzyl-2-[4-(4-methyl-piperazin-1-yl)-phenylamino]-5-oxo-5,8-dihydro-pyrido[2,3-d]pyrimidine-6-carboxylic acid amide], the IC50 turned out to be 9.6 nM.
The result for `CNC(=O)c1cn(-c2ccc3c(c2)CCC3)c2nc(Nc3cccc(CCCN(C)C)c3)ncc2c1=O` [Cpd 116, 2-[3-(3-dimethylamino-propyl)-phenylamino]-8-indan-5-yl-5-oxo-5,8-dihydro-pyrido[2,3-d]pyrimidine-6-carboxylic acid methylamide] reads 5.3 nM; that for `CCNC(=O)c1cn(-c2ccc3c(c2)CCC3)c2nc(Nc3cccc(CCCN(C)C)c3)ncc2c1=O` [Cpd 117, 2-[3-(3-dimethylamino-propyl)-phenylamino]-8-indan-5-yl-5-oxo-5,8-dihydro-pyrido[2,3-d]pyrimidine-6-carboxylic acid ethylamide], 6.5 nM.
Under `CN(C)C(=O)Cc1ccc(Nc2ncc3c(=O)c(C(N)=O)cn(-c4ccc5c(c4)CCC5)c3n2)cc1` [Cpd 118, 2-(4-dimethylcarbamoylmethyl-phenylamino)-8-indan-5-yl-5-oxo-5,8-dihydro-pyrido[2,3-d]pyrimidine-6-carboxylic acid amide] stands 4.5 nM.
Under `NC(=O)c1cn(-c2ccc3c(c2)CCC3)c2nc(Nc3cccc(C(=O)N4CCOCC4)c3)ncc2c1=O` [Cpd 120, 8-indan-5-yl-2-[3-(morpholine-4-carbonyl)-phenylamino]-5-oxo-5,8-dihydro-pyrido[2,3-d]pyrimidine-6-carboxylic acid amide] stands 17 nM; under `NC(=O)c1cn(-c2ccc3c(c2)CCC3)c2nc(Nc3ccc(C(=O)N4CCCC4)cc3)ncc2c1=O` [Cpd 122, 8-indan-5-yl-5-oxo-2-[4-(pyrrolidine-1-carbonyl)-phenylamino]-5,8-dihydro-pyrido[2,3-d]pyrimidine-6-carboxylic acid amide], 6.6 nM; under `CN(C)C(=O)c1ccc(Nc2ncc3c(=O)c(C(N)=O)cn(-c4ccc5c(c4)CCC5)c3n2)cc1` [Cpd 123, 2-(4-dimethylcarbamoyl-phenylamino)-8-indan-5-yl-5-oxo-5,8-dihydro-pyrido[2,3-d]pyrimidine-6-carboxylic acid amide], 4.5 nM.
With `NC(=O)c1cn(-c2ccc3c(c2)CCC3)c2nc(Nc3cccc(N4CCCC4)c3)ncc2c1=O` [Cpd 125, 8-indan-5-yl-5-oxo-2-(3-pyrrolidin-1-yl-phenylamino)-5,8-dihydro-pyrido[2,3-d]pyrimidine-6-carboxylic acid amide], the IC50 was found to be 5.7 nM.
Under `CC(=O)N1CCC(c2ccc(Nc3ncc4c(=O)c(C(N)=O)cn(-c5ccc6c(c5)CCC6)c4n3)cc2)CC1` [Cpd 126, 2-[4-(1-acetyl-piperidin-4-yl)-phenylamino]-8-indan-5-yl-5-oxo-5,8-dihydro-pyrido[2,3-d]pyrimidine-6-carboxylic acid amide] stands 1.8 nM; under `CONC(=O)c1cn(-c2ccc3c(c2)CCC3)c2nc(Nc3ccc(CN4CCN(C)CC4)cc3)ncc2c1=O` [Cpd 128, 8-indan-5-yl-2-[4-(4-methyl-piperazin-1-ylmethyl)-phenylamino]-5-oxo-5,8-dihydro-pyrido[2,3-d]pyrimidine-6-carboxylic acid methoxy-amide], 1.1 nM.
Under `CONC(=O)c1cn(-c2ccc3c(c2)CCC3)c2nc(Nc3cccc(S(=O)(=O)N(C)C)c3)ncc2c1=O` [Cpd 129, 2-(3-dimethylsulfamoyl-phenylamino)-8-indan-5-yl-5-oxo-5,8-dihydro-pyrido[2,3-d]pyrimidine-6-carboxylic acid methoxy-amide] stands 2.3 nM; under `CONC(=O)c1cn(-c2ccc3c(c2)CCC3)c2nc(Nc3ccc(CCN4CCCC4)cc3)ncc2c1=O` [Cpd 130, 8-indan-5-yl-5-oxo-2-[4-(2-pyrrolidin-1-yl-ethyl)-phenylamino]-5,8-dihydro-pyrido[2,3-d]pyrimidine-6-carboxylic acid methoxy-amide], 1.6 nM.
For `COCCNC(=O)c1cn(-c2ccc3c(c2)CCC3)c2nc(Nc3ccc(CCN4CCCC4)cc3)ncc2c1=O` [Cpd 132, 8-indan-5-yl-5-oxo-2-[4-(2-pyrrolidin-1-yl-ethyl)-phenylamino]-5,8-dihydro-pyrido[2,3-d]pyrimidine-6-carboxylic acid (2-methoxy-ethyl)-amide], the IC50 worked out at 12 nM.

In general, IC50 refers to the concentration at which inhibition is half-maximal.
